According to US9578878B2, “Antimicrobial efficacy of an oregano oil and caprylic acid blend” (Kemin Industries, Inc., priority 2014, dated 2017):

Tests used:
A. brasiliensis = assay: Poison agar assay; format: cell-based, Aspergillus brasiliensis
Method: Microorganisms Escherichia coli (ATCC #8739), Streptococcus sanguinis (ATCC #BAA-1455), Salmonella enteria subsp. enterica (ex Kauffmann and Edwards) Le Minor and Popoff serovar Typhimurium (ATCC #14028), Staphylococcus aureus (ATCC #6538), Pseudomonas aeruginosa (ATCC #9027), and Candida albicans (ATCC #10231) were obtained from a −80° C. internal stock culture. Aspergillus brasiliensis (ATCC #16404) was obtained from an internal stock solution culture stored at 4° C. E. coli, S. enterica S. aureus, and P. aeruginosa were grown in tryptic soy broth (TSB) and incubated at 37° C. for 24 h. S. sanguinis was grown in brain heart infusion broth (BHI). A. brasiliensis was plated on Sabourand dextrose agar (SDA) and incubated at 25° C. for 5-7 days. C. albicans was grown in Sabourand dextrose broth (SDB) and incubated at 25° C. for 48 h.
A. brasiliensis was harvested by adding 18 mL sterile saline to the plate and agitating the mold from the agar with a sterile inoculating loop. The inoculum was collected upon agitation. All suspended microbes were diluted with the same type of broth media used to grow each organism until an inoculum in the range of 10^6 CFU/mL was achieved. The inoculum concentration was determined by plate count method. Each strain was identified by plating on the appropriate growth media, E. coli, S. aureus, and P. aeruginosa on tryptic soy agar (Bacto, BD Sciences, Manassas, Va.) and C. albicans and A. brasiliensis on Sabrouand dextrose agar, to ensure there was no contamination of the inoculum.
A poison agar assay was completed for A. brasiliensis. Potato dextrose agar was used as the plated medium. Inocula at 10^5 cfu/ml were prepared and counted using a Petroff-Hausser counting chamber. Each treatment was added directly into the control without DMSO and Tween 80 as used in the previous experiments. The diameter of no growth around a 6 mm blank disk after incubation at 25° C. for 72 hrs was compared to the untreated control.

[1] = tested on: Aspergillus brasiliensis (ATCC #16404); assay: Preservative efficacy test (USP 51) in cold process cream, Example 1; format: cell-based; conditions: cream with caprylic acid, by the end of the study (28 days)
Method: (§1) Creams were prepared aseptically by spraying 70% isopropyl alcohol on all surfaces and labware. Carbomer 940 and coco caprylate were obtained from BPI Labs, Inc. (Evanston, Wyo.). Safflower and olive oils were purchased from Jedwards International, Inc. (Quincy, Mass.). The cream formulations were as follows: […]
(§2) Preservative studies were completed at different times for caprylic acid and 10% carvacrol in caprylic acid. The negative and positive controls were designated at A, B for the caprylic acid study and 1, 2 for the addition of carvacrol in Table 1. The change in positive control ingredients was due to a shift in the preservative used for regular KPC formulations.
(§3) DI water was added to a pre-weighed 250 mL beaker and mixed at 800 rpm using an overhead mixer (Eurostar power-b IKA-WERKE, Wilmington, N.C.) with a 3 blade […] impeller. Carbomer 940 was slowly added to the center of the mixing water. The mixture was hydrated for 30 minutes while covered with aluminum foil. Glycerin quickly followed by Lysofix were slowly added to the solution. After 2 minutes, safflower oil, olive oil, and coco caprylate were slowly added to the mixture at 1000 rpm. The solution was mixed for 30 minutes while covered with aluminum foil. Next the pH was measured and adjusted to 5.5 with a 33.3% sodium hydroxide solution. The mixing speed was increased to 1400 rpm. From time to time, it was necessary to scrape the sides of the beaker with a spatula to ensure that the cream became homogenized. When the cream appeared homogenized, the amount of preservative or treatment was added. After 2 minutes, the cream was weighed and water added to reach a mass balance.
(§4) Microorganisms Escherichia coli (ATCC #8739), Staphylococcus aureus (ATCC #6538), Pseudomonas aeruginosa (ATCC #9027), and Candida albicans (ATCC #10231) were obtained from a −80° C. internal stock culture. Aspergillus brasiliensis (ATCC #16404) was obtained from an internal stock solution cultured stored at 4° C. E. coli, S. aureus, and P. aeruginosa were grown in tryptic soy broth (Bacto, BD Sciences, Manassas, Va.) and incubated at 37° C. for 24 h. A. brasiliensis was plated on Sabourand dextrose agar (Bacto, BD Sciences, Manassas, Va.) and incubated at 25° C. for 5-7 days. C. albicans was grown in Sabourand dextrose broth (Bacto, BD Sciences, Manassas, Va.) and incubated at 25° C. for 48 h.
(§5) Pathogens in broth were harvested by centrifugation (2400 rpm, 20 minutes) and suspended in sterile saline. A. brasiliensis was harvested by adding 18 mL sterile saline to the plate and agitating the mold from the agar with a sterile inoculating loop. The inoculum was collected upon agitation. All suspended microbes were diluted with sterile saline until an inoculum in the range of 10^8 CFU/mL was achieved. The inoculum concentration was determined by plate count method. Each strain was identified by plating on the appropriate growth media, E. coli, S. aureus, and P. aeruginosa on tryptic soy agar (Bacto, BD Sciences, Manassas, Va.) and C. albicans and A. brasiliensis on Sabrouand dextrose agar, to ensure there was no contamination of the inoculum.
(§6) Creams were plated according to the SOP^1 to ensure they were sterile. Each prepared cream was inoculated with 0.1 mL of inoculum per 10 g of sample to reach the targeted inoculated concentration of 6-log cfu/g. Samples were vortexed for 2 minutes. The inoculated creams were incubated at 25° C. […]

[2] = tested on: Candida albicans (ATCC #10231); assay: as above; format: cell-based; conditions: cream with 0.5% or 1.0% caprylic acid, after 2 days
Method: as §1, §2, §3, §4, §5, §6

[3] = tested on: Escherichia coli (ATCC #8739); assay: as above; format: cell-based; conditions: cream with 0.5% or 1.0% caprylic acid, after 3 days
Method: as §1, §2, §3, §4, §5, §6

[4] = tested on: Pseudomonas aeruginosa (ATCC #9027); assay: as above; format: cell-based; conditions: cream with 0.5% or 1.0% caprylic acid, after 2 days
Method: as §1, §2, §3, §4, §5, §6

[5] = tested on: Staphylococcus aureus (ATCC #6538); assay: as above; format: cell-based; conditions: cream with 0.5% or 1.0% caprylic acid, after 2 days
Method: as §1, §2, §3, §4, §5, §6

CCCCCCCC(=O)O [Caprylic Acid, octanoic acid]
% Inhibition from Control (A. brasiliensis; 0.045% in agar): 34.60%
Diameter of Growth (A. brasiliensis; 0.045% in agar): 5.00 mm
% Inhibition from Control (A. brasiliensis; 0.090% in agar): 100.00%
Diameter of Growth (A. brasiliensis; 0.090% in agar): 0.00 mm
% Inhibition from Control (A. brasiliensis; 0.270% in agar): 100.00%
Diameter of Growth (A. brasiliensis; 0.270% in agar): 0.00 mm
MIC90 in the poison agar assay (A. brasiliensis; potato dextrose agar, 25° C., 72 hrs): 0.09%
Log reduction of A. brasiliensis [1]: 2 log
Log reduction of C. albicans [2]: 5 log
Log reduction of E. coli [3]: 5 log
Log reduction of P. aeruginosa [4]: 5 log
Log reduction of S. aureus [5]: 5 log
